What all share (test): NCI anticancer screen, dose series, 48 h
Assay [1] relates to ACHN renal.
In assay [2] the test system is NCI-H23 lung.
Assay [3] concerns HS 578T breast.
For assay [4], the system named is HOP-62 NSCLC.
Assay [5] deals with SK-OV-3 ovarian.
Assay [6] deals with OVCAR-4 ovarian.
Assay [7] has as its system HL-60(TB) leukemia.
Assay [8] deals with RPMI-8226 leukemia.
The test system of assay [9] is SNB-19 CNS.
The test system of assay [10] is MDA-N.

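Growth conditions: 96-well plates. Treatment: test compound, 48 hours, 5 concentrations. Analysis: linear interpolation between bracketing concentrations; unreached endpoints set to highest concentration. TGI: total growth inhibition.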 Where a SMILES comes first, the peptide text is derived from it.

As to `COc1ccc2c(c1)CCCN2S(=O)(=O)c1ccccc1[N+](=O)[O-]`, the TGI in assay [1] is greater than 100 µM; in [2], greater than 100 µM; in [3], greater than 97.1 µM; in assay [4] it was greater than 100 µM; in assay [5] it was greater than 77 µM; in assay [6] it was greater than 100 µM. Further, the TGI was 37.1 µM in [7], 71.3 µM in assay [8], greater than 100 µM in assay [9] and 26.7 µM in [10].
In the case of `COc1ccc(N=Nc2c(C)c(C#N)c(=S)n(C3OC(CO)C(O)C(O)C3O)c2C)cc1` (stereo not given), the TGI in [1], in [2], in assay [3], in [4], in [5] and in assay [6] was greater than 100 µM throughout. In addition, the TGI in assay [7], in [8], in assay [9] and in [10] was greater than 100 µM in each case.
For the compound `O=C(NC(Nc1ccc(F)cc1)(C(F)(F)F)C(F)(F)F)C(C(F)(F)F)C(F)(F)F`, the TGI in [1] is greater than 100 µM; in assay [2] it was greater than 100 µM; in [3], greater than 90.5 µM; in assay [4] it was greater than 100 µM; in assay [5] it was greater than 100 µM; in assay [6], greater than 43.9 µM. The TGI in assay [7] was 15.1 µM; in [8] it was 60 µM; in assay [9], greater than 100 µM; in assay [10] it was greater than 100 µM.
Take `COc1ccc(/C=C2/NC(=S)N=C2Cl)cc1`: the TGI in [1], in [2], in assay [3], in [4], in assay [5] and in [6] was greater than 100 µM throughout. Also, the TGI in assay [7], in assay [8], in assay [9] and in assay [10] was greater than 100 µM in each case.
With `CN1C=Cc2nccc3cc4c(c1c23)OCO4`, the TGI in assay [1] is 19.3 µM; in [2], 10.3 µM; in assay [3], greater than 77.3 µM; in [4] it was 32.7 µM; in [5], 61.6 µM; in assay [6], 47.5 µM. The TGI in [7] is greater than 100 µM; in [8] it was 30.7 µM; in assay [9], 41 µM; in [10], 8.62 µM.
On to `O=c1oc2ccc(Cl)cc2cc1-c1cn2ccccc2n1`, for which the TGI in assay [1] is 8.54 µM; in [2], 46.8 µM; in [3], greater than 100 µM; in [4], 16.1 µM; in [5], 6.52 µM; in assay [6], 29.8 µM. For the same compound, the TGI is greater than 100 µM in assay [7], greater than 100 µM in assay [8], greater than 21 µM in assay [9] and greater than 100 µM in [10].
For `CC(C)CC(NC(=O)C(Cc1ccccc1)NC(=O)C(Cc1c[nH]c2ccccc12)NC(=O)CNC(=O)C(N)Cc1ccc(O)cc1)C(=O)O` (stereo not given) (H-YGWFL-OH; configuration not given here), the TGI in [1], in assay [2], in [3], in [4], in assay [5] and in [6] was greater than 100 µM throughout. For the same compound, the TGI was 60.9 µM in assay [7], 57.4 µM in [8], greater than 100 µM in assay [9] and greater than 100 µM in assay [10].
Consider `O=C1NC(N2CCCCC2)=N/C1=C\c1ccccc1O`, for which the TGI in assay [1] is greater than 100 µM; in assay [2], greater than 100 µM; in assay [3], greater than 100 µM; in assay [4] it was greater than 100 µM; in assay [5], greater than 100 µM; in assay [6], 91.4 µM. Also, the TGI in assay [7], in assay [8], in assay [9] and in [10] was greater than 100 µM in each case.
As for `CC1=CC(C)C(C)N(CCNS(=O)(=O)c2ccc(C)cc2)c2ccccc21` (stereo not given), the TGI in assay [1] is 29.2 µM; in assay [2], 26.9 µM; in [3], 20.7 µM; in assay [4] it was 27 µM; in [5], greater than 100 µM; in assay [6] it was 22.3 µM. Also, the TGI is 22.8 µM in [7], 22.3 µM in [8], greater than 31.6 µM in assay [9] and 18.8 µM in assay [10].
Consider `O=C(O)C1(Cc2ccc3c(c2)CCC3)Cc2ccccc2C1`, for which the TGI in [1], in [2], in assay [3], in [4], in assay [5] and in assay [6] was greater than 100 µM in each case. For the same compound, the TGI in [7], in assay [8], in [9] and in assay [10] was greater than 100 µM in each case.
Regarding `C(=N\OCCc1ccccc1)/c1cccnc1`, the TGI in assay [1], in [2], in [3], in assay [4], in assay [5] and in assay [6] was greater than 100 µM throughout. The TGI in [7], in [8], in [9] and in assay [10] was greater than 100 µM throughout.
Regarding `O=C1NC(=O)/C(=C/c2ccc(S(=O)(=O)N/N=C\C(O)C(O)C(O)C(O)CO)cc2)N1` (stereo not given), the TGI in [1], in assay [2], in [3], in assay [4], in [5] and in assay [6] was greater than 100 µM throughout. For the same compound, the TGI in assay [7], in assay [8], in [9] and in assay [10] was greater than 100 µM throughout.
In the case of `CN(C)CCn1c(=O)c2ccc3c4c(nn3CCN(C)C)c3cc([N+](=O)[O-])ccc3n(c1=O)c24`, the TGI in assay [1] amounted to 0.975 µM; in assay [2], 0.397 µM; in assay [3], 2.82 µM; in assay [4] it was 0.974 µM; in assay [5], 0.959 µM; in assay [6] it was 0.223 µM. The TGI stood at 0.638 µM in assay [7], 0.397 µM in [8], 1.08 µM in assay [9] and 0.243 µM in assay [10].
`CCN(CC)c1ccc2cc(-c3nnc(-c4ccccc4O)o3)c(=O)oc2c1`: the TGI in assay [1] is 24.2 µM; in assay [2], 24.8 µM; in assay [3], 57.6 µM; in assay [4] it was 18.5 µM; in [5], greater than 100 µM; in [6] it was 27.5 µM. The TGI in assay [7] was 22.7 µM; in assay [8], greater than 100 µM; in assay [9], 26.9 µM; in assay [10], 30.7 µM.
For the compound `COc1cc(Nc2nnc3n2S(=O)(=O)c2cc(C)c(Cl)cc2S3)cc(OC)c1`, the TGI in assay [1] amounted to 16.7 µM; in assay [2], 43.7 µM; in [3] it was 66.9 µM; in assay [4], 26.7 µM; in assay [5], 31.4 µM; in assay [6] it was 24.4 µM. Further, the TGI in [7] was 49.7 µM; in [8], 95.7 µM; in assay [9], 77.6 µM; in assay [10] it was greater than 100 µM.
On to `N#Cc1nc(-c2ccccn2)oc1N`, for which the TGI in assay [1], in assay [2], in assay [3], in [4], in assay [5] and in assay [6] was greater than 100 µM each time. Besides, the TGI in [7], in assay [8], in [9] and in [10] was greater than 100 µM in each case.
Consider `CN(C)CC1CCCCCCCCCC(CN(C)C)C1=O` (stereo not given), for which the TGI in assay [1] was greater than 46.3 µM; in assay [2], greater than 50.5 µM; in [3], 24.1 µM; in assay [4], greater than 62.4 µM; in [5] it was greater than 45.6 µM; in [6], greater than 41.2 µM. Moreover, the TGI in [7] was greater than 100 µM; in assay [8], greater than 100 µM; in [9] it was greater than 55.6 µM; in assay [10], 30.9 µM.
Regarding `NC(=O)/C=c1/c2ccccc2n2nc3ccccc3c12`, the TGI in assay [1] amounted to 29.1 µM; in [2] it was 64.1 µM; in [3], 87.6 µM; in assay [4], 77.2 µM; in assay [5], 59.3 µM; in assay [6], 39.4 µM. Besides, the TGI was 7.58 µM in [7], 29.1 µM in assay [8], 49.3 µM in assay [9] and 35.6 µM in assay [10].
Regarding `Oc1cccc2cc(Br)cnc12`, the TGI in assay [1] was greater than 69.2 µM; in [2], greater than 72.8 µM; in assay [3], greater than 92.6 µM; in assay [4], greater than 100 µM; in [5], greater than 100 µM; in assay [6], greater than 30.4 µM. Besides, the TGI in assay [7] is 4 µM; in [8], greater than 31.4 µM; in assay [9] it was greater than 100 µM; in [10], greater than 100 µM.
Take `[O-][N+]1=NC(c2ccccc2)=C1c1ccccc1`: the TGI in assay [1], in [2], in assay [3], in assay [4], in assay [5] and in assay [6] was greater than 50 µM each time. Also, the TGI in assay [7], in assay [8], in [9] and in [10] was greater than 50 µM throughout.
`N#Cc1c(O)cc(=O)n2c1[nH]c1ccccc12`: the TGI in [1], in assay [2], in assay [3], in [4], in assay [5] and in assay [6] was greater than 100 µM throughout. The TGI in [7], in assay [8], in assay [9] and in [10] was greater than 100 µM in each case.
As for `COC1=CC(=O)c2c(c(COP(=O)(N(C)CCBr)N(C)CCBr)cn2C)C1=O`, the TGI in [1] was 0.0728 µM; in assay [2], 2.06 µM; in [3], 2.93 µM; in [4], 0.776 µM; in [5] it was 1.88 µM; in assay [6] it was 3 µM. Further, the TGI in assay [7] is greater than 100 µM; in assay [8], 0.441 µM; in assay [9] it was 3.76 µM; in assay [10], 0.274 µM.
As for `COc1cc(S(=O)(=O)Nc2ccc(-c3csc(N4C(=O)C(Cl)C4c4ccccc4)n3)cc2)ccc1Cl` (stereo not given), the TGI was greater than 100 µM in assay [1]; 89.3 µM in assay [2]; greater than 100 µM in [3]; greater than 100 µM in assay [4]; greater than 100 µM in assay [5]; 87.3 µM in assay [6]. For the same compound, the TGI in [7], in assay [8], in assay [9] and in [10] was greater than 100 µM each time.
On to `O=C(O)CNn1c(SCC(=O)O)nnc(/C=C/c2c(O)ccc3ccccc23)c1=O`, for which the TGI in [1] is greater than 100 µM; in assay [2] it was 52.6 µM; in [3], 94.4 µM; in [4], greater than 100 µM; in assay [5], greater than 100 µM; in assay [6], greater than 100 µM. In addition, the TGI in assay [7] is 25.9 µM; in assay [8] it was greater than 100 µM; in assay [9] it was greater than 100 µM; in assay [10], greater than 100 µM.
On to `C=CC(Br)(CBr)CCC(Br)C(C)(C)Cl` (stereo not given), for which the TGI is 6.07 µM in assay [1]; 12.9 µM in assay [2]; 14.7 µM in assay [3]; 7.87 µM in [4]; 30.1 µM in assay [5]; 10.4 µM in assay [6]. Also, the TGI in [7] was found to be 2.6 µM; in [8] it was 2.31 µM; in assay [9] it was 4.51 µM; in assay [10] it was 8.34 µM.
Take `CC(=O)c1cccc(NC(=O)C(=O)C(c2cnc3ccc([N+](=O)[O-])cc3n2)[N+](=O)[O-])c1` (stereo not given): the TGI in assay [1], in assay [2], in [3], in [4], in assay [5] and in assay [6] was greater than 100 µM throughout. In addition, the TGI in assay [7], in assay [8], in [9] and in [10] was greater than 100 µM each time.
Consider `CCOC(=O)c1c(-c2ccc(Br)cc2)ccn1C`, for which the TGI in assay [1], in [2], in assay [3], in assay [4], in assay [5] and in assay [6] was greater than 10 µM in each case. The TGI in assay [7], in [8], in assay [9] and in assay [10] was greater than 10 µM in each case.

The values are drawn from PubChem BioAssay (NCI).
